This assay addresses human Cat S (Homo sapiens (Human), UniProt P25774). Description: Cathepsin enzyme inhibition assay (fluorogenic peptide substrate cleavage). In kind it is biochemical. The following applies: human Cathepsin S 1 nM, substrate Z-Val-Val-Arg-AMC 20 μM, pH 6.5; read-out: Ic50 CatS: human. The method, then:
Cathepsin Enzyme Inhibition Assay
Enzyme activity is measured by observing the increase in fluorescence intensity caused by cleavage of a peptide substrate containing a fluorophore whose emission is quenched in the intact peptide. • Assay buffer: 100 mM potassium phosphate pH 6.5, EDTA-Na 5 mM, Triton X-100 0.001%, DTT 5 mM. • Enzymes (all at 1 nM): human and mouse Cathepsin S, Cat K, Cat B, Cat L. • Substrate (20 μM): Z-Val-Val-Arg-AMC, except for Cat K which uses Z-Leu-Arg-AMC (both from Bachem). • Z=Benzyloxycarbonyl. • AMC=7-Amino-4-Methyl-Coumarin. • DTT=dithiothreitol. • Final volume: 100 μL. • Excitation 360 nm, Emission 465 nm.
Enzyme is added to the substance dilutions in 96-well microtitre plates and the reaction is started with substrate. Fluorescence emission is measured over 20 minutes, during which time a linear increase is observed in the absence of inhibitor. IC50 are calculated by standard methods.
Inhibition of human Cat S, mouse Cat S, human Cat K, human Cat B, human Cat L and mouse Cat L have been measured separately. The results obtained for human Cat S for representative compounds of the invention are expressed in the following table in μM.

Each structure is given as a SMILES string.

Chain of human Cat S (P25774 115-331): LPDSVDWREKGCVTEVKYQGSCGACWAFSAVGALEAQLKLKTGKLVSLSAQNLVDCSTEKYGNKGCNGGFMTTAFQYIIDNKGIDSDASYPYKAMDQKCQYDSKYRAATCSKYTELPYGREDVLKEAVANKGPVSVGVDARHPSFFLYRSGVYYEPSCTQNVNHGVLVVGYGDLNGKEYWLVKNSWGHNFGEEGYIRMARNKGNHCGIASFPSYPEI

Usually IC50 stands for the midpoint of a concentration-inhibition curve. For the compound `Cc1ccc(S(=O)(=O)[C@@H]2C[C@@H](C(=O)NC3(C#N)CC3)N(C(=O)C3(N4CCCCC4)CC3)C2)cc1` [Example 44, (2S,4R)-N-(1-Cyanocyclopropyl)-1-(1-(piperidin-1-yl)cyclopropanecarbonyl)-4-tosylpyrrolidine-2-carboxamide], the IC50 stood at 0.4 nM.

Take `N#CC1(NC(=O)[C@@H]2C[C@@H](S(=O)(=O)c3ccccc3OC(F)(F)F)CN2C(=O)C2(N3CCCCC3)CC2)CC1` [Example 45, (2S,4R)-N-(1-Cyanocyclopropyl)-1-(1-(piperidin-1-yl)cyclopropanecarbonyl)-4-(2-(trifluoromethoxy)phenylsulfonyl)pyrrolidine-2-carboxamide]: the IC50 stood at 0.8 nM.

For the compound `N#CC1(NC(=O)[C@@H]2C[C@@H](S(=O)(=O)c3cccc(C(F)(F)F)c3)CN2C(=O)C2(N3CCCCC3)CC2)CC1` [Example 46, (2S,4R)-N-(1-Cyanocyclopropyl)-1-(1-(piperidin-1-yl)cyclopropanecarbonyl)-4-(3-(trifluoromethyl)phenylsulfonyl)pyrrolidine-2-carboxamide], the half-maximal inhibitory concentration (IC50) was 0.4 nM.

As for `N#CC1(NC(=O)[C@@H]2C[C@@H](S(=O)(=O)c3ccc(Cl)cc3)CN2C(=O)C2(N3CCCCC3)CC2)CC1` [Example 47, (2S,4R)-4-(4-Chlorophenylsulfonyl)-N-(1-cyanocyclopropyl)-1-(1-(piperidin-1-yl)cyclopropanecarbonyl)pyrrolidine-2-carboxamide], the IC50 came out at 0.8 nM.

Regarding `CC1(C)CCCN(C2(C(=O)N3C[C@H](S(=O)(=O)c4ccccc4Cl)C[C@H]3C(=O)NC3(C#N)CC3)CC2)C1` [Example 48, (2S,4R)-4-(2-Chlorophenylsulfonyl)-N-(1-cyanocyclopropyl)-1-(1-(3,3-dimethylpiperidin-1-yl)cyclopropanecarbonyl)pyrrolidine-2-carboxamide], the IC50 is 2.3 nM.

The record behind these values is patent US8802665B2, “Pyrrolidine derivatives” (Hoffman-La Roche Inc., priority 2012, dated 2014).
